The values that follow come from patent US11046689B2, “Selective estrogen receptor down-regulators” (AstraZeneca AB, priority 2017, dated 2021).

This assay deals with Estrogen Receptor (ER) in MCF-7 cells (Homo sapiens (Human), UniProt P03372). Description: MCF-7 ER down-regulation assay (immuno-fluorescence). It counts as cell-based. The settings on record: stated where not >90%.
Estrogen Receptor (ER) in MCF-7 cells, sequence (P03372 whole entry): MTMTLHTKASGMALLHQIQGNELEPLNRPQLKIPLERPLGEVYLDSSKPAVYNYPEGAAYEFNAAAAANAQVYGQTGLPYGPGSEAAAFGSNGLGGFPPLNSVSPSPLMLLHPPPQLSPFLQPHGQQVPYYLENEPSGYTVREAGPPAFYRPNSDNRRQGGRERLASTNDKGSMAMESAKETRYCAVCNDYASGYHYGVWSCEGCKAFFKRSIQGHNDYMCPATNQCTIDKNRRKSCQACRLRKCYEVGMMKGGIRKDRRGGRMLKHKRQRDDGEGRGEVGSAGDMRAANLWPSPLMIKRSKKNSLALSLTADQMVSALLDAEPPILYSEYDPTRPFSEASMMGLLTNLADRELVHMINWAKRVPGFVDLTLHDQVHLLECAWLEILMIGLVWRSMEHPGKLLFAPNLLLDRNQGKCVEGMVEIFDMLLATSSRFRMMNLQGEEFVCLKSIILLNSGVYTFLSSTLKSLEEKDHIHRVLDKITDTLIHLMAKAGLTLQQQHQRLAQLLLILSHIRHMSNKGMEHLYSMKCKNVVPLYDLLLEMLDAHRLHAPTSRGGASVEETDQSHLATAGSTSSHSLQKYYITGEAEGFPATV
Protocol: The ability of compounds to down-regulate Estrogen Receptor (ER) numbers was assessed in a cell based immuno-fluorescence assay using the MCF-7 human ductal carcinoma breast cell line. MCF-7 cells were revived directly from a cryovial (approx 5×10^6 cells) in Assay Medium (phenol red free Dulbecco's Modified Eagle's medium (DMEM); Sigma D5921) containing 2 mM L-Glutamine and 5% (v/v) Charcoal/Dextran treated foetal calf serum. Cells were syringed once using a sterile 18G×1.5 inch (1.2×40 mm) broad gauge needle and cell density was measured using a Coulter Counter (Beckman). […] Following cell seeding, plates were incubated overnight at 37° C., 5% CO2 (Liconic carousel incubator). Test data was generated using the LabCyte Echomodel 555 compound reformatter which is part of an automated workcell (Integrated Echo 2 workcell). Compound stock solutions (10 mM) of the test compounds were used to generate a 384 well compound dosing plate (Labcyte P-05525-CV1). […] 40 μL of DMSO added to wells in row P on the source plate allowed for DMSO normalisation across the dose range. To dose the control wells 40 μL of DMSO was added to row O1 and 40 μL of 100 μM fulvestrant in DMSO was added to row O3 on the compound source plate.
The Echo uses acoustic technology to perform direct microplate-to-microplate transfers of DMSO compound solutions to assay plates. The system can be programmed to transfer volumes as low as 2.5 nL in multiple increments between microplates and in so doing generates a serial dilution of compound in the assay plate which is then back-filled to normalise the DMSO concentration across the dilution range. […] The fixing method described above was carried out on the Integrated Echo 2 workcell. Immunostaining was performed using an automated AutoElisa workcell. The PBS/Proclin was aspirated from all wells and the cells permeabilised with 40 μL PBS containing 0.5% Tween™ 20 (v/v) for 1 hour at room temperature. The plates were washed three times in 250 μL of PBS/0.05% (v/v) Tween 20 with Proclin (PBST with a Biocide preservative) and then 20 μL of ERα (SP1) Rabbit monoclonal antibody (Thermofisher) 1:1000 in PBS/Tween™/3% (w/v) Bovine Serum Albumin was added. The plates were incubated overnight at 4° C. (Liconic carousel incubator) and then washed three times in 250 μL of PBS/0.05% (v/v) Tween™ 20 with Proclin (PBST). The plates were then incubated with 20 μL/well of a goat anti-rabbit IgG AlexaFluor 594 or goat anti-rabbit AlexaFluor 488 antibody (Molecular Probes) with Hoechst at 1:5000 in PBS/Tween™/3% (w/v) Bovine Serum Albumin for 1 hour at room temperature. The plates were then washed three times in 250 μL of PBS/0.05% (v/v) Tween™ 20 with Proclin (PBST with a Biocide preservative). 20 μL of PBS was added to each well and the plates covered with a black plate seal and stored at 4° C. before being read. […] The mean total intensity was normalized for cell number giving the total intensity per cell. The data was exported into a suitable software package (such as Origin) to perform curve fitting analysis.
`COc1ccc(OCCNCCCF)c(F)c1[C@@H]1c2[nH]c3ccccc3c2C[C@@H](C)N1CC1(F)COC1` [Example 84, 3-fluoro-N-(2-(2-fluoro-3-((1R,3R)-2-((3-fluorooxetan-3-yl)methyl)-3-methyl-2,3,4,9-tetrahydro-1H-pyrido[3,4-b]indol-1-yl)-4-methoxy-phenoxy)ethyl)propan-1-amine]: the “% downregulation (shown in brackets)” value stood at 83%.

With `C[C@@H]1Cc2c([nH]c3ccccc23)[C@@H](c2c(F)ccc(OCCN(C)CCCF)c2F)N1CC1(F)COC1` [Example 154, N-(2-(2,4-difluoro-3-((1R,3R)-2-((3-fluorooxetan-3-yl)methyl)-3-methyl-2,3,4,9-tetrahydro-1H-pyrido[3,4-b]indol-1-yl)phenoxy)ethyl)-3-fluoro-N-methyl-propan-1-amine], the “% downregulation (shown in brackets)” value came to 79%.

`C[C@@H]1Cc2c([nH]c3ccccc23)[C@@H](c2c(F)ccc(OCCN(C)CCCF)c2F)N1C[C@H](C)C(=O)O` [Example 144]: the “% downregulation (shown in brackets)” value is reported as 88%.

With `COc1ccc(OCCNCCCF)cc1[C@@H]1c2[nH]c3ccccc3c2C[C@@H](C)N1C[C@H](C)C(=O)O` [Example 53, (S)-3-((1R,3R)-1-(5-(2-((3-fluoropropyl)amino)ethoxy)-2-methoxy-phenyl)-3-methyl-1,3,4,9-tetrahydro-2H-pyrido[3,4-b]indol-2-yl)-2-methyl-propanoic acid], the “% downregulation (shown in brackets)” value was “−(40%)”.

As for `COCc1ccc(OCCNCCCF)cc1[C@@H]1c2[nH]c3ccccc3c2C[C@@H](C)N1CC(F)(F)F` [Example 71, 3-fluoro-N-(2-(4-(methoxy-methyl)-3-((1R,3R)-3-methyl-2-(2,2,2-trifluoroethyl)-2,3,4,9-tetrahydro-1H-pyrido[3,4-b]indol-1-yl)phenoxy)ethyl)propan-1-amine], the “% downregulation (shown in brackets)” value is on record as 90%.

Consider `COc1ccc(OC[C@@H](C)NCCCF)cc1[C@@H]1c2[nH]c3ccccc3c2C[C@@H](C)N1CC(F)(F)CO` [Example 50, 2,2-difluoro-3-((1R,3R)-1-(5-((R)-2-((3-fluoropropyl)amino)propoxy)-2-methoxyphenyl)-3-methyl-1,3,4,9-tetrahydro-2H-pyrido[3,4-b]indol-2-yl)propan-1-ol], for which the “% downregulation (shown in brackets)” value is recorded as 81%.

As to `C[C@@H]1Cc2c([nH]c3ccccc23)[C@@H](c2c(F)ccc(OCCN(C)CCCF)c2C(F)F)N1C[C@H](C)C(=O)O` [Example 148, (S)-3-((1R,3R)-1-(2-(difluoro-methyl)-6-fluoro-3-(2-((3-fluoro-propyl)(methyl)amino)ethoxy)phenyl)-3-methyl-1,3,4,9-tetrahydro-2H-pyrido[3,4-b]indol-2-yl)-2-methyl-propanoic acid], the “% downregulation (shown in brackets)” value amounted to 68%.

`COc1ccc(OCCNCCCF)c(F)c1[C@@H]1c2[nH]c3ccccc3c2C[C@@H](C)N1CC1(F)CC1` [Example 83, 3-fluoro-N-(2-(2-fluoro-3-((1R,3R)-2-((1-fluorocyclo-propyl)methyl)-3-methyl-2,3,4,9-tetrahydro-1H-pyrido[3,4-b]indol-1-yl)-4-methoxy-phenoxy)ethyl)propan-1-amine]: the “% downregulation (shown in brackets)” value worked out at 90%.

Consider `COc1ccc(O[C@H](C)CNCCCF)cc1[C@@H]1c2[nH]c3ccccc3c2C[C@@H](C)N1CC(F)(F)CO` [Example 47, 2,2-difluoro-3-((1R,3R)-1-(5-(((R)-1-((3-fluoropropyl)amino)propan-2-yl)oxy)-2-methoxyphenyl)-3-methyl-1,3,4,9-tetrahydro-2H-pyrido[3,4-b]indol-2-yl)propan-1-ol], for which the “% downregulation (shown in brackets)” value was 81%.

On to `Cc1c(OCCN(C)CCCF)ccc(F)c1[C@@H]1c2[nH]c3ccccc3c2C[C@@H](C(F)(F)F)N1C[C@H](C)C(=O)O` [Example 149, (S)-3-((1R,3S)-1-(6-fluoro-3-(2-((3-fluoropropyl)(methyl)amino)ethoxy)-2-methylphenyl)-3-(trifluoro-methyl)-1,3,4,9-tetrahydro-2H-pyrido[3,4-b]indol-2-yl)-2-methyl-propanoic acid], for which the “% downregulation (shown in brackets)” value was 86%.

For the compound `C[C@@H]1Cc2c([nH]c3ccccc23)[C@@H](c2cccc(OCCNCCCF)n2)N1CC(F)(F)F` [Example 34, 3-fluoro-N-(2-((6-((1S,3R)-3-methyl-2-(2,2,2-trifluoroethyl)-2,3,4,9-tetrahydro-1H-pyrido[3,4-b]indol-1-yl)pyridin-2-yl)oxy)ethyl)propan-1-amine], the “% downregulation (shown in brackets)” value is on record as “−(41%)”.

Consider `Cc1c(OCCNCCCF)ccc(F)c1[C@@H]1c2[nH]c3ccccc3c2CC(C)(C)N1C[C@H](C)C(=O)O` [Example 134, (S)-3-((R)-1 (6-fluoro-3-(2-((3-fluoro-propyl)amino)ethoxy)-2-methylphenyl)-3,3-dimethyl-1,3,4,9-tetrahydro-2H-pyrido[3,4-b]indol-2-yl)-2-methyl-propanoic acid], for which the “% downregulation (shown in brackets)” value is recorded as 85%.
